# Like-named read-outs stand apart in the source and are kept apart here.
# Tests used:
# [1] = tested on: Streptococcus faecalis sub. zymogenes ATCC 12958; assay: Bacteriostatic power in solid medium (MIC), aerobic Gram positive; type: cell-based; conditions: Enterococcus faecalis
# Shigella sonnei LRP 5 = assay: Bacteriostatic power in solid medium (MIC), aerobic Gram negative; type: cell-based; conditions: Shigella sonnei, LRP5, read-out: minimum inhibiting concentration
# From the text: (§1) Turning now to an examination of the novel macrolide antibiotics produced according to the present invention, they are all characterized by a bacteriostatic spectrum like that of erythromycin and by the stability in acidic environment, whereby their direct administration by oral route is possible, without having recourse to esters and/or salts, showing the afore mentioned disadvantages and problems. The above is confirmed by the following Table 1, wherein the MIC values are reported, indicating the bacteriostatic power, and by the Table 2, giving the stability values in acidic environment. Without having to be construed in a limiting sense, it seems plausible that the greater stability of the macrolide. antibiotics of the present invention can be attributed to the presence in the molecule of the antibiotic of the neutral sugar oleandrose (J. Antib. (1976) XXIX (7), 728).
# (§2) Bacteriostatic power in solid medium of Erythromycin A, Erythromycin B,
# (§3) aerobic and anaerobic bacteria, Gram positive and Gram negative minimum
# (§4) inhibiting concentrations expressed in mcg/ml.
# [2] = tested on: Pseudomonas aeruginosa LRP 9; assay: as above; type: cell-based; conditions: Pseudomonas aeruginosa, LRP9, read-out: minimum inhibiting concentration
# From the text: as §1, §2, §3, §4
# [3] = tested on: Haemophilus influenzae ATCC 19418; assay: as above; type: cell-based; conditions: Haemophilus influenzae, ATCC19418, LRP 213, read-out: minimum inhibiting concentration
# From the text: as §1, §2, §3, §4
# [4] = tested on: Streptococcus faecalis LRP 7; assay: Bacteriostatic power in solid medium (MIC), aerobic Gram positive; type: cell-based; conditions: Enterococcus faecalis
# [5] = tested on: Micrococcus luteus ATCC 9341; assay: as above; type: cell-based; conditions: Micrococcus luteus
# [6] = tested on: Bacteroides fragilis ATCC 23745; assay: Bacteriostatic power in solid medium (MIC), anaerobic; type: cell-based; conditions: Bacteroides fragilis
# [7] = tested on: Corynebacterium diphteriae LRP 24; assay: Bacteriostatic power in solid medium (MIC), aerobic Gram positive; type: cell-based; conditions: Corynebacterium
# [8] = tested on: Staphylococcus aureus LRP 14; assay: as above; type: cell-based; conditions: Staphylococcus aureus
# Salmonella typhi LRP 8 = assay: Bacteriostatic power in solid medium (MIC), aerobic Gram negative; type: cell-based; conditions: Salmonella enterica, TYPHI, read-out: minimum inhibiting concentration
# [9] = tested on: Streptococcus pneumonieae LRP 52; assay: Bacteriostatic power in solid medium (MIC), aerobic Gram positive; type: cell-based; conditions: Streptococcus
# [10] = tested on: Klebsiella pneumoniae LRP 54; assay: Bacteriostatic power in solid medium (MIC), aerobic Gram negative; type: cell-based; conditions: Klebsiella pneumoniae
# [11] = tested on: Mycoplasma hominis I ATCC 14097; assay: as above; type: cell-based; conditions: Metamycoplasma hominis
# [12] = tested on: Streptococcus pyogenes ATCC 8668; assay: Bacteriostatic power in solid medium (MIC), aerobic Gram positive; type: cell-based; conditions: Streptococcus pyogenes
# physchem = type: physicochemical; conditions: acidic environment
# From the text: t 1/2 represents the half life time of the antibiotics as determined by
# high pressure liquid phase chromatography (HPLC).
# [13] = tested on: Streptococcus pneumonieae ATCC 6303; assay: Bacteriostatic power in solid medium (MIC), aerobic Gram positive; type: cell-based; conditions: Streptococcus
# [14] = tested on: Streptococcus pyogenes LRP 197; assay: as above; type: cell-based; conditions: Streptococcus pyogenes
# [15] = tested on: Acholeplasma laidlawii ATCC 23206; assay: Bacteriostatic power in solid medium (MIC), aerobic Gram negative; type: cell-based; conditions: Acholeplasma laidlawii
# [16] = tested on: Staphylococcus aureus ATCC 6538 P; assay: Bacteriostatic power in solid medium (MIC), aerobic Gram positive; type: cell-based; conditions: Staphylococcus aureus
# [17] = tested on: Neisseria Gonorrhoeae ATCC 19424; assay: Bacteriostatic power in solid medium (MIC), aerobic Gram negative; type: cell-based; conditions: Neisseria gonorrhoeae
# [18] = tested on: Streptococcus pneumonieae LRP 53; assay: Bacteriostatic power in solid medium (MIC), aerobic Gram positive; type: cell-based; conditions: Streptococcus
# [19] = tested on: Fusobacterium necrophorum ATCC 27852; assay: Bacteriostatic power in solid medium (MIC), anaerobic; type: cell-based; conditions: Fusobacterium necrophorum, ATCC27852, read-out: minimum inhibiting concentration
# [20] = tested on: Proteus vulgaris ATCC 6380; assay: Bacteriostatic power in solid medium (MIC), aerobic Gram negative; type: cell-based; conditions: Proteus vulgaris
# [21] = tested on: Staphylococcus aureus ATCC 14154; assay: Bacteriostatic power in solid medium (MIC), aerobic Gram positive; type: cell-based; conditions: Staphylococcus aureus, ATCC14154, LRP 78, Erythromicina resistant, read-out: minimum inhibiting concentration
# From the text: as §1, §2, §3, §4
# [22] = tested on: Micrococcus luteus ATCC 15957; assay: as above; type: cell-based; conditions: Micrococcus luteus, ATCC15957, LRP 193, Erythromicina resistant, read-out: minimum inhibiting concentration
# From the text: as §1, §2, §3, §4
# [23] = tested on: Clostridium perfrigens ATCC 3624; assay: Bacteriostatic power in solid medium (MIC), anaerobic; type: cell-based; conditions: Clostridium, ATCC3624, LRP 206, read-out: minimum inhibiting concentration
# Escherichia coli LRP 50 = assay: Bacteriostatic power in solid medium (MIC), aerobic Gram negative; type: cell-based; conditions: Escherichia coli
# Bacillus subtilis LRP 25 = assay: Bacteriostatic power in solid medium (MIC), aerobic Gram positive; type: cell-based; conditions: Bacillus subtilis
# [24] = ATCC12958, read-out: minimum inhibiting concentration
# [25] = LRP7, read-out: minimum inhibiting concentration
# [26] = ATCC9341, read-out: minimum inhibiting concentration
# [27] = ATCC23745, read-out: minimum inhibiting concentration
# [28] = LRP24, read-out: minimum inhibiting concentration
# [29] = LRP14, read-out: minimum inhibiting concentration
# [30] = LRP52, read-out: minimum inhibiting concentration
# [31] = LRP54, read-out: minimum inhibiting concentration
# [32] = ATCC14097, read-out: minimum inhibiting concentration
# [33] = ATCC8668, read-out: minimum inhibiting concentration
# [34] = ATCC6303, read-out: minimum inhibiting concentration
# [35] = LRP197, read-out: minimum inhibiting concentration
# [36] = ATCC23206, read-out: minimum inhibiting concentration
# [37] = ATCC6538, read-out: minimum inhibiting concentration
# [38] = ATCC19424, read-out: minimum inhibiting concentration
# [39] = LRP53, read-out: minimum inhibiting concentration
# [40] = ATCC6380, read-out: minimum inhibiting concentration
# [41] = LRP50, read-out: minimum inhibiting concentration
# [42] = LRP25, read-out: minimum inhibiting concentration
SMILES,"MIC [1, 24]",MIC (Shigella sonnei LRP 5),MIC [2],MIC [3],"MIC [4, 25]","MIC [5, 26]","MIC [6, 27]","MIC [7, 28]","MIC [8, 29]",MIC (Salmonella typhi LRP 8),"MIC [9, 30]","MIC [10, 31]","MIC [11, 32]","MIC [12, 33]",half-life (physchem; pH 2),"half-life (physchem; pH 3, read-out: t 1/2)",MIC [19],MIC [21],MIC [22],MIC [23],other results
"CC[C@H]1OC(=O)[C@H](C)[C@@H](O[C@H]2C[C@H](OC)[C@@H](O)[C@H](C)O2)[C@H](C)[C@@H](O[C@@H]2O[C@H](C)C[C@H](N(C)C)[C@H]2O)[C@](C)(O)C[C@@H](C)C(=O)[C@H](C)[C@@H](O)[C@H]1C [P 15149, 3-O-oleandrosyl-5-O-desosaminyl-erythronolide B]",0.78 µg/mL,> 25 µg/mL,> 25 µg/mL,6.25 µg/mL,0.78 µg/mL,0.097 µg/mL,3.12 µg/mL,0.049 µg/mL,0.78 µg/mL,> 25 µg/mL,0.097 µg/mL,> 25 µg/mL,> 25 µg/mL,0.097 µg/mL,18 h,> 100 h,> 25 µg/mL,> 25 µg/mL,> 25 µg/mL,12.5 µg/mL,"half-life (physchem; pH 4, read-out: t 1/2): > 100 h; MIC [13, 34]: 0.097 µg/mL; MIC [14, 35]: 0.097 µg/mL; MIC [15, 36]: 12.5 µg/mL; MIC [16, 37]: 0.78 µg/mL; MIC [17, 38]: 0.195 µg/mL; MIC [18, 39]: 0.097 µg/mL; MIC [20, 40]: > 25 µg/mL; MIC (Escherichia coli LRP 50; [41]): > 25 µg/mL; MIC (Bacillus subtilis LRP 25; [42]): 0.039 µg/mL"
"CC[C@H]1OC(=O)[C@H](C)[C@@H](O[C@H]2C[C@H](OC)[C@@H](O)[C@H](C)O2)[C@H](C)[C@@H](O[C@@H]2O[C@H](C)C[C@H](N(C)C)[C@H]2O)[C@](C)(O)C[C@](C)(O)C(=O)[C@H](C)[C@@H](O)[C@H]1C [P 15148, 3-O-oleandrosyl-5-O-desosaminyl-(8S)-8-hydroxyerythronolide B]",0.78 µg/mL,> 25 µg/mL,> 25 µg/mL,> 25 µg/mL,0.78 µg/mL,0.049 µg/mL,6.25 µg/mL,0.097 µg/mL,1.56 µg/mL,25 µg/mL,0.195 µg/mL,> 25 µg/mL,> 25 µg/mL,0.195 µg/mL,27 h,> 100 h,> 25 µg/mL,> 25 µg/mL,> 25 µg/mL,25 µg/mL,"half-life (physchem; pH 4, read-out: t 1/2): > 100 h; MIC [13, 34]: 0.195 µg/mL; MIC [14, 35]: 0.195 µg/mL; MIC [15, 36]: 6.25 µg/mL; MIC [16, 37]: 1.56 µg/mL; MIC [17, 38]: 1.56 µg/mL; MIC [18, 39]: 0.097 µg/mL; MIC [20, 40]: > 25 µg/mL; MIC (Escherichia coli LRP 50; [41]): > 25 µg/mL; MIC (Bacillus subtilis LRP 25; [42]): 0.78 µg/mL"
"CC[C@H]1OC(=O)[C@H](C)[C@@H](O[C@H]2C[C@@](C)(OC)[C@@H](O)[C@H](C)O2)[C@H](C)[C@@H](O[C@@H]2O[C@H](C)C[C@H](N(C)C)[C@H]2O)[C@](C)(O)C[C@@H](C)C(=O)[C@H](C)[C@@H](O)[C@H]1C [Erythromycin B, reference compound]",–,> 25 µg/mL,> 25 µg/mL,6.25 µg/mL,–,–,–,–,–,25 µg/mL,–,–,–,–,–,–,6.25 µg/mL,> 25 µg/mL,> 25 µg/mL,1.56 µg/mL,"MIC ([1]; ATCC12958, solid medium, LRP 61, read-out: minimum inhibiting concentration): 0.195 µg/mL; MIC ([4]; LRP7, solid medium, LRP 7, read-out: minimum inhibiting concentration): 0.195 µg/mL; MIC ([5]; ATCC9341, solid medium, LRP 6, read-out: minimum inhibiting concentration): 0.006 µg/mL; MIC ([6]; ATCC23745, solid medium, LRP 205, anaerobic, read-out: minimum inhibiting concentration): 0.195 µg/mL; MIC ([7]; LRP24, solid medium, LRP 24, read-out: minimum inhibiting concentration): 0.012 µg/mL; MIC ([8]; LRP14, solid medium, LRP 14, Penycilline resistant, read-out: minimum inhibiting concentration): 0.195 µg/mL; MIC ([9]; LRP52, solid medium, LRP 52, read-out: minimum inhibiting concentration): 0.024 µg/mL; MIC ([10]; LRP54, solid medium, LRP 54, read-out: minimum inhibiting concentration): 25 µg/mL; MIC ([11]; ATCC14097, solid medium, LRP 211, read-out: minimum inhibiting concentration): > 25 µg/mL; MIC ([12]; ATCC8668, solid medium, LRP 34, read-out: minimum inhibiting concentration): 0.024 µg/mL; MIC ([13]; ATCC6303, solid medium, LRP 35, read-out: minimum inhibiting concentration): 0.024 µg/mL; MIC ([14]; LRP197, solid medium, LRP 197, read-out: minimum inhibiting concentration): 0.024 µg/mL; MIC ([15]; ATCC23206, solid medium, LRP 204, read-out: minimum inhibiting concentration): 0.097 µg/mL; MIC ([16]; ATCC6538, solid medium, LRP 39, read-out: minimum inhibiting concentration): 0.097 µg/mL; MIC ([17]; ATCC19424, solid medium, LRP 214, read-out: minimum inhibiting concentration): 0.097 µg/mL; MIC ([18]; LRP53, solid medium, LRP 53, read-out: minimum inhibiting concentration): 0.024 µg/mL; MIC ([20]; ATCC6380, solid medium, LRP 13, read-out: minimum inhibiting concentration): > 25 µg/mL; MIC (Escherichia coli LRP 50; LRP50, solid medium, LRP 50, read-out: minimum inhibiting concentration): 25 µg/mL; MIC (Bacillus subtilis LRP 25; LRP25, solid medium, LRP 25, read-out: minimum inhibiting concentration): 0.049 µg/mL"
